Cytotoxicity data for one sequence are collected here from patent US12168037B2, “Intracellular IL-1 alpha peptide methods and compositions” (CEDARS-SINAI MEDICAL CENTER, priority 2018, dated 2024).

Ends that are not written are not given here.

This data set relates to melanoma cells. The data set is described as follows: Cytotoxicity to melanoma cells. It is filed as cell-based, mouse. Conditions: 40 μg/ml, 5 h. As for the experimental part:
We label the SPDIA peptide with 680XL tag (680XL-SPDIA) using the VivoTag 680XL Protein Labeling Kit (PerkinElmer) for determine half-life and membrane penetrating efficiency of SPDIA peptide. B16 or YUMM1.7 melanoma cells are treated with 680XL-SPDIA peptide at various doses (10-100 μg/ml) and durations (1-10 h), and live images for intracellular expression and half-life of the SPDIA peptide are detected by fluorescence microscopy (Keyence, BZ-X). Further, the cellular cytotoxicity to the B16 and YUMM1.7 melanoma cells are measured by LDH cytotoxicity assay kit.
While we do […] expect to observe any cytotoxicity in vitro, at cells at lower concentrations of SPDIA peptide for longer durations (24, 48 h) and assess cell death.

With GKVLKKRRLSL [SPDIA, GKVLKKRRLSL], the cytotoxicity result is given as “without inducing cytotoxicity”.
